Data as given in a melting point compilation (Tetko et al.; mined from patent text by program, amines drawn as free bases though some values may be those of a salt).

| SMILES | melting point [°C] |
| --- | --- |
| CCCCCCCCCCCCCCCCCCNC(=O)OC[C@@H]1OCCC[C@H]1O (relative stereo) | 55 to 56 |
| N#CC1(C#N)C2CC(C3OC32)C1(Cl)Cl (stereo unspecified) | 229 |
| COc1ccc(NC(=O)c2cccc(OC)c2N)cc1 | 168 to 169 |
| CC(=O)c1ccc2c(c1)C=CC(=O)CO2 | 92 to 93 |
| COc1ccc(S(=O)(=O)Nc2cccc(C)c2N)cc1 | 177 to 178 |
| CC(C)OC(=O)Nc1cccc(-c2ccnc3c(C(=O)c4ccsc4)cnn23)c1 | 122 to 124 |
| CN(C(=O)C1CCC1)c1cccc(-c2ccnc3c(C(=O)c4ccco4)cnn23)c1 | 166 to 167 |
| COc1ccc(OCc2nc(-c3ccc(F)cc3)c(-c3ccc(S(C)(=O)=O)cc3)s2)cc1 | 160 to 164 |
| CN(C)CCNC(=O)c1c2ccccc2nc2c1[nH]c1ccccc12 | 175 to 176 |
| FC(F)(F)c1cccc(CCc2nnc(-c3ccnc4[nH]ccc34)o2)c1 | 176 to 177 |
| CCc1cn2c(N)c(Cl)cc(C(=O)NC3CCN(CCCOC)CC3)c2n1 | 179 |
| COc1cc(-c2nc(NC(=O)c3cc4ccccc4n3CCCCCC(=O)O)sc2CCC2CCCCC2)c(OC)cc1Cl | 121 |
| CC(=O)Oc1cc(OCC(F)(F)C(F)(F)F)ccc1C(=O)O | 126 |
| Clc1ccc(C2(CCBr)OCC(c3ccc(Cl)cc3Cl)O2)cc1 (stereo unspecified) | 82.7 |
| CN1CCC(=C2c3ccccc3CCn3ncnc32)CC1 | 127 |
| C[C@@H]1C[C@@H]([C@H](CC2CCCCC2)NC(=O)[C@H](Cc2cscn2)NC(=O)OC(C)(C)C)OC1=O | 118 to 120 |
| CCCC1=C([N+](=O)[O-])C(c2ccccc2Cl)c2c[nH]nc2N1 (stereo unspecified) | 228 |
| C1=C(c2ccc3[nH]ccc3c2)CCN(Cc2c[nH]c3ncccc23)C1 | 187 to 189 |
| COc1cc(OC)c(NC(=S)Nc2ccccc2)cc1O | 152 to 154 |
| Nc1nc2cc(Cl)c(Cl)c(Cl)c2[nH]1 | 255 to 258 |
| CC(CCCc1ccccc1)Oc1cc(O)c2c(c1)NCCC2=O (stereo unspecified) | 88 to 90 |
| COCCCNc1ccc([N+](=O)[O-])cc1C | 26 to 28 |
| CCCCCCCCc1ccc2nc(N)nc(N)c2c1C | 262 to 264 |
| Cc1ccc(Nc2nc(C)c(-c3nc4ccccc4c(=O)n3-c3ccc(Cl)cc3)s2)cc1 | > 275 |
| NC(=O)c1cnc2c(N)cccc2c1 | 164 to 165 |
| COc1ccc(-c2cc(COS(C)(=O)=O)c(=O)n(CCCc3ccc(F)cc3)n2)cc1F | 112 to 116 |

| SMILES | melting point [°C] |
| --- | --- |
| N#Cc1ccc(-c2n[nH]c3c2Cc2ccccc2-3)cc1 | 245 |
| Cc1csc2nc3ccc(C(F)(F)F)cc3n12 | 127 |
| CCN(CC)CCOc1ccc(Nc2ncc3c(n2)N(c2cccc(CCO)c2)C(=O)N(c2ccccc2Br)C3)cc1 | 98 |
| O=C(OCc1ccccc1)N1CCc2c(sc3nc(CN4C(=O)CCC4=O)c(Cl)c(-c4ccc(OCc5ccccc5)cc4)c23)C1 | 238 to 239 |
| COC(=O)C1(C(F)F)c2ccccc2Oc2ccccc21 | 101 |
| Cc1cccc(C)c1N1Cc2cnc(Nc3ccccc3)nc2N(c2cccc(CCN)c2)C1=O | 128 |
| Cc1ccc2c(c1)C(c1ccccc1)(C(F)(F)F)c1cc(C)ccc1O2 | 150 to 151 |
| Nc1cc(N2C(=O)CCc3ccccc32)ccn1 | 204 to 205 |
| CC(Cc1ccccc1)(C(=NC#N)NCCc1ccccc1)c1ccccn1 (stereo unspecified) | 162 to 164 |
| N#CC(C(=O)c1ccc([N+](=O)[O-])cc1)=C1CCCCN1 | 182 |
| O=C(O)Cc1nn(Cc2nc3cc(F)cc(F)c3s2)c(=O)c2ccccc12 | 178 |
| COc1cc(-c2ccc(O)c(C3(C)CCCCC3)c2)cc(CC2SC(N3CCCC3)=NC2=O)c1OC (stereo unspecified) | 227 to 230 |
| O=C1Nc2ccc(Cl)cc2C12OCCCO2 | 184 to 185 |
| COC(=O)C1=C(C)NC(C)=C(C(=O)OCCN2CCN(C(c3ccc(Cl)cc3)c3ccc(Cl)cc3)CC2)C1c1cccc([N+](=O)[O-])c1 (stereo unspecified) | 83 to 87 |
| C/C(=C\C(=O)NC1CC1)c1cccc(F)c1 | 119 |
| CC1CCC(=O)N1c1ccnc(NC(=O)NCc2ccccn2)c1 (stereo unspecified) | 155 to 160 |
| COc1cccc(NC(=O)NC2N=C(C(C)C)c3ccccc3N(CC(=O)N3CC4CCC(CC4)C3)C2=O)c1 (stereo unspecified) | 139 to 142 |
| CC(C)(C)c1cc(N(C(=O)CCC(=O)O)c2ccccc2)cc(C(C)(C)C)c1O | 205 to 208 |
| CCOc1ccc2[nH]c(=O)n(-c3ccccc3Cl)c2c1 | 97 |
| Cc1cn(Cc2ccc(N)cc2)cn1 | 141 to 142 |
| Cc1c(-c2ccc(F)cc2)nc(-c2ccccc2)n1C(C)C | 161 to 162 |
| c1ccc(N=C2CCCCN2)c(CN2CCOCC2)c1 | 108 to 110 |
| CNC(=O)N(C)C1=NN(C(=O)C(C)(C)C)C(C)S1 (stereo unspecified) | 168 to 169 |
| CCCn1cnc(C(N)=O)c1N | 241 to 243 |
| CC(C)c1cc(C(C)C)c(CC(=O)NS(=O)(=O)Oc2c(C(C)C)cc(C=CC#N)cc2C(C)C)c(C(C)C)c1 | 157 to 160 |
| CC(=O)N(c1ccc(O)cc1)c1ccc2cc(O)ccc2c1 | 255 |

| SMILES | melting point [°C] |
| --- | --- |
| CC1=NN=C(c2ccc([N+](=O)[O-])cc2)c2cc(Br)ccc2C1 | 200 to 205 |
| O=C(O)CN1C(=O)C2(COc3cc4c(cc32)CCO4)c2c(Cl)cccc21 (stereo unspecified) | 228 to 229 |
| CC1Cc2ccc(Br)cc2C(c2ccc(N)cc2)=NN1C(N)=O (stereo unspecified) | 218 to 221 |
| Cc1ccc(S(=O)(=O)n2ccc3c2CC(c2ccccc2)CC3=O)cc1 (stereo unspecified) | 118 to 120 |
| Cn1c(C(=O)NCCCNC2CCCCC2)ccc1-c1nc(-c2cccc(C(F)(F)F)c2)cs1 | 120 to 123 |
| Cc1cc(Oc2c(Cl)cc(C(F)(F)F)cc2Cl)nn1C(=O)NCC1CCCO1 (stereo unspecified) | 74 to 76 |
| COc1ccc(N2CCN(n3c(C)n[nH]c3=O)CC2)cc1 | 264 |
| CC1(C)CCC(C)(C)c2cc(-c3cc(-c4ccc(C(=O)O)cc4O)ccc3-c3ccccc3)ccc21 | 183 to 185 |
| COc1nccc(Oc2ccc(NC(=O)c3cc(F)cc(N4CCOCC4)c3)c3ccccc23)n1 | 216 to 217 |
| Nc1ncc(Sc2ccc([N+](=O)[O-])cc2)s1 | 162 to 164 |
| N#Cc1cccnc1CC1C(=O)C2(COc3cc4c(cc32)OCCO4)c2ccccc21 (stereo unspecified) | 230 to 233 |
| CNC(=O)N(O)C(C)C#Cc1ccc(Cl)cc1 (stereo unspecified) | 151 to 153 |
| O=C(O)Cc1cccc(OCc2ccccc2)c1 | 127 to 129 |
| CC1(C)N=C(c2ccc(N)cc2)CC1c1ccncc1 (stereo unspecified) | 175 to 178 |
| CC(C)(C)c1cc(C2SC(CC(=O)N3CCCC3)C(=O)N2CCCCl)cc(C(C)(C)C)c1O (stereo unspecified) | 193 to 194 |
| C#CCON=C(C)C1CN2CCC1CC2 (stereo unspecified) | 56 to 58 |
| CC#CCOc1ccc(S(=O)(=O)N2CCOCC2C(=O)NO)cc1 (stereo unspecified) | 68 to 72 |
| CN1CCC(Sc2ccc3[nH]c(=O)[nH]c3c2)CC1 | 214 to 215 |
| CC(=O)OCc1ccc(N)cc1 | 83 to 84 |
| C[C@@H]1CN(Cc2ccc(F)cc2)CCN1C(=O)/C=C/c1ccc(Cl)cc1NC(=O)N1CCNC1=O | 275 to 277 |
| CCOC(=O)Nc1c(C(=O)O)oc2cc(OCc3ccccc3)ccc12 | 198 |
| CCC(=O)OCC(=O)C12OCOC1CC1C3CCC4=CC(=O)C=CC4(C)C3C(O)CC12C (stereo unspecified) | 184 to 185 |
| CCCCCCC(C(=O)O)n1ccc2cc(-c3cccc(OC)c3C(=O)O)ccc21 (stereo unspecified) | 80 to 90 |
| Brc1nc2ncnc(NCc3ccccc3)c2[nH]1 | 233 to 235 |
| CC(C)(C)OC(=O)N1CCc2cc([N+](=O)[O-])ccc2C1 | 138 to 141 |
| CCCCC[C@@H](CNC(=O)Nc1c(OC(C)C)c(C)nn1C)c1cccc2c1OCO2 | 123 to 124 |

| SMILES | melting point [°C] |
| --- | --- |
| CCOc1ccc2[nH]c(=O)n(C3CCCC3)c2c1 | 75 |
| CN(C)C1(c2ccc(F)cc2)CCC2(CC1)NCCc1c2[nH]c2ccccc12 (stereo unspecified) | 249 to 250 |
| COc1ccc(Cn2c(=O)[nH]c3ccc([N+](=O)[O-])cc3c2=O)cc1 | 254 to 256 |
| O=C(O)COCN(c1ccc(CN2CCN(Cc3ccccc3)C(=O)C2=O)cc1)c1ncccn1 | 85 to 90 |
| CC(C)(C)OC(=O)N1CCN(c2ccc3ncc(Br)n3n2)CC1 | 176 to 179 |
| COc1cccc(N2CCN(CCCO)CC2)c1 | 87 to 89 |
| COc1ccc(C=CC(=O)Nc2cnc3cc(C)c(C)cc3c2-c2ccccc2Cl)cc1OC | 210 to 211 |
| COc1c(-c2ccc3cc(NS(C)(=O)=O)ccc3c2)cc(N2CCNC2=O)cc1C(C)(C)C | 284 to 286 |
| COC(=O)NC(C)(C)c1ccc(CBr)cc1 | 74 to 76 |
| CC1(c2ccc(OCc3ccccc3)c(C=O)c2)OCCO1 | 78 to 80 |
| CCc1cc2c([nH]c1=O)C(=O)C=CC2=O | 168 |
| CC(=O)OCC1=C(C(=O)O)N2C(=O)C(NC(=O)Cn3ccnc3S(C)(=O)=O)C2SC1 (stereo unspecified) | 223 |
| COC(=O)CC1NC(=O)C(Cc2ccccc2)NC1=O (stereo unspecified) | 217 to 218 |
| O=C1C(=O)N(C(c2ccccc2)c2ccccc2)c2c(Cl)cccc21 | 172 to 173 |
| CN(C)C=C1N=C(c2ccccc2Cl)c2cc(I)ccc2N(C)C1=O | 182 to 184 |
| CCN(CC)C(=O)CCc1nc(-c2ccccc2)nc2c(C)cccc12 | 80 |
| COc1ccc(S(=O)(=O)n2ccc3cccc(-c4ccc(C#N)cc4)c32)cc1 | 164 to 166 |
| O=C(O)COc1c(Cl)cc(F)cc1Cl | 155 to 158 |
| O=C(Nc1cccc(F)c1)c1ccccn1 | 74 to 78 |
| CCCCOc1ncc(I)cc1C(N)=S | 140 to 148 |
| Nc1ccc(C(=O)C[N+](=O)[O-])c(Cl)c1 | 131 to 133 |
| O=C(O)c1ccc(Cn2cc(C3c4ccc(C(F)(F)F)cc4C=Cc4cc(C(F)(F)F)ccc43)c(=O)[nH]c2=O)o1 | 203 to 206 |
| COC(=O)CNC(=O)c1cncc(F)c1 | 80 to 82 |
